Source: US20260092057A1, “BCL-XL/BCL-2 DEGRADERS AND USES THEREOF” (Kymera Therapeutics, Inc., priority 2022, published 2026)
Like-named read-outs stand apart in the source and are kept apart here.

Key:
Type in all cases: cell-based
BCL-XL = target: T1, BCL-XL (Homo sapiens, UniProt Q07817); experiment: BCL-XL degradation assay in MOLT-4 cells (ELISA, 6 h); conditions: for DC50: read-out: Bcl-xL ELISA in MOLT-4 degradation 6 h: External Abs-DC50
T1 construct: BCL-XL degradation results in MOLT-4 cells for compounds of the invention; endogenous in cells; host or cells: MOLT-4
T1 sequence (Q07817 whole entry): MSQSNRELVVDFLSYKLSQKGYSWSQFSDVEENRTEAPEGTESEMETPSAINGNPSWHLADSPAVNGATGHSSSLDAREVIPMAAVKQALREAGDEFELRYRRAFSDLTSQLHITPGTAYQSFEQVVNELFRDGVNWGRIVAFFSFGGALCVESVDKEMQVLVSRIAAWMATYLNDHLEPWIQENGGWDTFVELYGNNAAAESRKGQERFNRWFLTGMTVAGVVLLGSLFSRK

MOLT-4 cells = experiment: CTG (CellTiter-Glo) cell viability assay, MOLT-4; conditions: MOLT-4, 3 day, read-out: CTG Cell Viability Assay - MOLT-4 3 day: Average external-IC50
Outline: (§1)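 Cells seeded at 10,000 per well, then exposed to a 9-point 1:3 dilution series from 10 µM top concentration (0.2% DMSO) for 3 days at 37 °C, 5% CO2. Viability measured by CellTiter-Glo luminescence; IC50 from a three-parameter logistic fit.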

Caki-2 cells = experiment: CTG (CellTiter-Glo) cell viability assay, Caki-2; conditions: Homo sapiens, CAKI-2, 72 h, Caki-2, 3-day; read-out: CTG Chempartner/PHA- Caki-2 3-day: Average external-IC50
Outline: as §1

SMILES | Dmax (BCL-XL) [%] | DC50 (BCL-XL) [µM] | IC50 (MOLT-4 cells; Homo sapiens, MOLT-4, 72 h) [µM] | IC50 (Caki-2 cells) [µM] | IC50 (MOLT-4 cells) [µM]
Cc1ncsc1-c1ccc([C@H](C)NC(=O)[C@@H]2C[C@@H](O)CN2C(=O)[C@@H](NC(=O)CCCCCC(=O)N2CCN(CCCNc3ccc(S(=O)(=O)NC(=O)c4ccc(N5CCN(CC6=C(c7ccc(Cl)cc7)CCC(C)(C)C6)CC5)cc4Oc4cnc5[nH]ccc5c4)cc3S(=O)(=O)C(F)(F)F)CC2)C(C)(C)C)cc1 [I-52] | 50 to 75 | 0.1 to 0.5 | 0.1 to 1 | > 30 | 
Cc1ncsc1-c1ccc([C@H](C)NC(=O)[C@@H]2C[C@@H](O)CN2C(=O)[C@@H](NC(=O)CCCCCC(=O)N2CCN(CC[C@H](CSc3ccccc3)Nc3ccc(S(=O)(=O)NC(=O)c4ccc(N5CC6CC6C5)cc4)cc3S(=O)(=O)C(F)(F)F)CC2)C(C)(C)C)cc1 (some centres unmarked) [I-37] | < 50 | 0.5 to 1 | > 3 | > 30 | 
Cc1ncsc1-c1ccc([C@H](C)NC(=O)[C@@H]2C[C@@H](O)CN2C(=O)[C@@H](NC(=O)CCCCCC(=O)N2CCN(CC[C@H](CSc3ccccc3)Nc3ccc(S(=O)(=O)NC(=O)c4ccc(N5CCN(CC6=C(c7ccc(Cl)cc7)CC(C)(C)CC6)CC5)cc4)cc3S(=O)(=O)C(F)(F)F)CC2)C(C)(C)C)cc1 [I-42] | > 75 | 0.01 to 0.1 | < 0.1 | 5 to 10 | 
Cc1ncsc1-c1ccc([C@H](C)NC(=O)[C@@H]2C[C@@H](O)CN2C(=O)[C@@H](NC(=O)CCCCCCCC(=O)N2CCN(CCCNc3ccc(S(=O)(=O)NC(=O)c4ccc(N5CCN(CC6=C(c7ccc(Cl)cc7)CC(C)(C)CC6)CC5)cc4Oc4cnc5[nH]ccc5c4)cc3S(=O)(=O)C(F)(F)F)CC2)C(C)(C)C)cc1 [I-86] | 50 to 75 | 0.01 to 0.1 | 0.1 to 1 | > 30 | 
C#Cc1ccc([C@H](CO)NC(=O)[C@@H]2C[C@@H](O)CN2C(=O)[C@@H](NC(=O)CCCCCC(=O)N2CCN(CCCNc3ccc(S(=O)(=O)NC(=O)c4ccc(N5CCN(CC6=C(c7ccc(Cl)cc7)CC(C)(C)CC6)CC5)cc4Oc4cnc5[nH]ccc5c4)cc3S(=O)(=O)C(F)(F)F)CC2)C(C)(C)C)cc1 [I-102] | > 75 | < 0.01 | < 0.1 | > 30 | 
C#Cc1ccc([C@H](C)NC(=O)[C@@H]2C[C@@H](O)CN2C(=O)[C@@H](NC(=O)CCCCCC(=O)N2CCN(CC[C@H](CSc3ccccc3)Nc3ccc(S(=O)(=O)NC(=O)c4ccc(N5CCC([C@H](O)c6ccccc6-c6ccc(Cl)cc6)CC5)cc4)cc3S(=O)(=O)C(F)(F)F)CC2)C(C)(C)C)cc1 (single isomer, unassigned) [I-33] | 50 to 75 | 0.1 to 0.5 | 1 to 3 | > 30 | 
Cc1ncsc1-c1ccc(CNC(=O)[C@@H]2C[C@@H](O)CN2C(=O)[C@@H](NC(=O)CCCCCC(=O)N2CC3(CN(CC[C@H](CSc4ccccc4)Nc4ccc(S(=O)(=O)NC(=O)c5ccc(N6CCN([C@@H](O)c7ccccc7-c7ccc(Cl)cc7)CC6)cc5)cc4S(=O)(=O)C(F)(F)F)C3)C2)C(C)(C)C)cc1 [I-125] | 50 to 75 | 0.01 to 0.1 | 0.1 to 1 | > 30 | 
Cc1ncsc1-c1ccc([C@H](C)NC(=O)[C@@H]2C[C@@H](O)CN2C(=O)[C@@H](NC(=O)CCCCCCN2CCN(CC[C@H](CSc3ccccc3)Nc3ccc(S(=O)(=O)NC(=O)c4ccc(N5CCN(Cc6ccccc6-c6ccc(Cl)cc6)CC5)cc4)cc3[N+](=O)[O-])CC2)C(C)(C)C)cc1 [I-13] | 50 to 75 | 0.5 to 1 | > 3 | > 30 | 
Cc1ncsc1-c1ccc([C@H](C)NC(=O)[C@@H]2C[C@@H](O)CN2C(=O)[C@@H](NC(=O)CCCC(=O)N2CCN(CCCNc3ccc(S(=O)(=O)NC(=O)c4ccc(N5CCC([C@H](O)c6ccccc6-c6ccc(Cl)cc6)CC5)cc4Oc4cnc5[nH]ccc5c4)cc3S(=O)(=O)C(F)(F)F)CC2)C(C)(C)C)cc1 (single isomer, unassigned) [I-60] | < 50 | 0.5 to 1 | 1 to 3 | > 30 | 
Cc1ncsc1-c1ccc([C@H](C)NC(=O)[C@@H]2CC(O)CN2C(=O)[C@@H](NC(=O)CCCCCCC(=O)N2CCN(c3ccc(-c4ccc(Cl)cc4)c(CN4CCN(c5ccc(C(=O)NS(=O)(=O)c6ccc(N[C@H](CCN(C)C)CSc7ccccc7)c([N+](=O)[O-])c6)cc5)CC4)c3)CC2)C(C)(C)C)cc1 (some centres unmarked) [I-4] | 50 to 75 | 0.5 to 1 | > 3 | > 30 | 
Cc1ncsc1-c1ccc([C@H](C)NC(=O)[C@@H]2C[C@@H](O)CN2C(=O)[C@@H](NC(=O)C#CC2CCN(CCCNc3ccc(S(=O)(=O)NC(=O)c4ccc(N5CCC([C@@H](O)c6ccccc6-c6ccc(Cl)cc6)CC5)cc4Oc4cnc5[nH]ccc5c4)cc3S(=O)(=O)C(F)(F)F)CC2)C(C)(C)C)cc1 [I-117] |  |  | > 3 | > 30 | 
Cc1ncsc1-c1ccc([C@H](C)NC(=O)[C@@H]2C[C@@H](O)CN2C(=O)[C@@H](NC(=O)CCCCCC(=O)N2CCN(C[C@]3(C)CCC(c4ccc(Cl)cc4)=C(CN4CCN(c5ccc(C(=O)NS(=O)(=O)c6ccc(NCCCN7CCOCC7)c(S(=O)(=O)C(F)(F)F)c6)c(Oc6cnc7[nH]ccc7c6)c5)CC4)C3)CC2)C(C)(C)C)cc1 [I-130] |  |  |  | > 30 | 1 to 3
Cc1ncsc1-c1ccc([C@H](C)NC(=O)[C@@H]2C[C@@H](O)CN2C(=O)[C@@H](NC(=O)C2CCN(C3CCN(CCCNc4ccc(S(=O)(=O)NC(=O)c5ccc(N6CCN(CC7=C(c8ccc(Cl)cc8)CC(C)(C)CC7)CC6)cc5Oc5cnc6[nH]ccc6c5)cc4S(=O)(=O)C(F)(F)F)CC3)CC2)C(C)(C)C)cc1 [I-90] |  |  | > 3 | > 30 | 
Cc1ncsc1-c1ccc([C@H](C)NC(=O)[C@@H]2C[C@@H](O)CN2C(=O)[C@@H](NC(=O)CCCCCC(=O)N2CCN(CCCNc3ccc(S(=O)(=O)NC(=O)c4ccc(N5CCN(C)CC5)cc4Oc4cnc5[nH]ccc5c4)cc3S(=O)(=O)C(F)(F)F)CC2)C(C)(C)C)cc1 [I-57] |  |  | > 3 | > 30 | 
Cc1ncsc1-c1ccc([C@H](C)NC(=O)[C@@H]2C[C@@H](O)CN2C(=O)[C@@H](NC(=O)CCC(=O)N2CCN(CC[C@H](CSc3ccccc3)Nc3ccc(S(=O)(=O)NC(=O)c4ccc(N5CCC([C@@H](O)c6ccccc6-c6ccc(Cl)cc6)CC5)cc4)cc3S(=O)(=O)C(F)(F)F)CC2)C(C)(C)C)cc1 [I-119] |  |  | > 3 | > 30 | 
Cc1ncsc1-c1ccc([C@H](C)NC(=O)[C@@H]2C[C@@H](O)CN2C(=O)[C@@H](NC(=O)CCCCCC(=O)NCC[C@H](CSc2ccccc2)Nc2ccc(S(=O)(=O)NC(=O)c3ccc(N4CCC([C@@H](O)c5ccccc5-c5ccc(Cl)cc5)CC4)cc3)cc2S(=O)(=O)C(F)(F)F)C(C)(C)C)cc1 [I-82] |  |  | 1 to 3 | 10 to 30 | 
Cc1ncsc1-c1ccc([C@H](C)NC(=O)[C@@H]2C[C@@H](O)CN2C(=O)[C@@H](NC(=O)CCCCCCC(=O)N2CCN(C[C@]3(C)CCC(c4ccc(Cl)cc4)=C(CN4CCN(c5ccc(C(=O)NS(=O)(=O)c6ccc(NCCN7CCOCC7)c(S(=O)(=O)C(F)(F)F)c6)c(Oc6cnc7[nH]ccc7c6)c5)CC4)C3)CC2)C(C)(C)C)cc1 [I-93] |  |  | 1 to 3 | > 30 | 
Cc1ncsc1-c1ccc(CNC(=O)[C@@H]2C[C@@H](O)CN2C(=O)[C@@H](NC(=O)C2(F)CC2)C(C)(C)C)c(OCCCCCCC(=O)N2CCN(Cc3ccc(-c4ccc(Cl)cc4)c(CN4CCN(c5ccc(C(=O)NS(=O)(=O)c6ccc(N[C@H](CCN(C)C)CSc7ccccc7)c([N+](=O)[O-])c6)cc5)CC4)c3)CC2)c1 [I-18] |  |  | > 3 | > 30 | 
Cc1ncsc1-c1ccc([C@H](C)NC(=O)[C@@H]2C[C@@H](O)CN2C(=O)[C@@H](NC(=O)CCCCCC(=O)N2CCN(Cc3ccc(-c4ccc(Cl)cc4)c([C@H](O)C4CCN(c5ccc(C(=O)NS(=O)(=O)c6ccc(NCCCN(C)C)c(S(=O)(=O)C(F)(F)F)c6)c(Oc6cnc7[nH]ccc7c6)c5)CC4)c3)CC2)C(C)(C)C)cc1 [I-111] |  |  | > 3 | > 30 | 
Cc1ncsc1-c1ccc([C@H](C)NC(=O)[C@@H]2C[C@@H](O)CN2C(=O)[C@@H](NC(=O)CCCCCN2CCC(CNc3ccc(S(=O)(=O)NC(=O)c4ccc(N5CCN(CC6=C(c7ccc(Cl)cc7)CC(C)(C)CC6)CC5)cc4Oc4cnc5[nH]ccc5c4)cc3S(=O)(=O)C(F)(F)F)CC2)C(C)(C)C)cc1 [I-75] |  |  | 0.1 to 1 | > 30 | 
Cc1ncsc1-c1ccc([C@H](C)NC(=O)[C@@H]2C[C@@H](O)CN2C(=O)[C@@H](NC(=O)CCCCCC(=O)N2CCN(CCCNc3ccc(S(=O)(=O)NC(=O)c4ccc(N5CCC(C)(C)CC5)cc4Oc4cnc5[nH]ccc5c4)cc3S(=O)(=O)C(F)(F)F)CC2)C(C)(C)C)cc1 [I-54] |  |  | > 3 | > 30 | 
Cc1ncsc1-c1ccc([C@H](C)NC(=O)[C@@H]2C[C@@H](O)CN2C(=O)[C@@H](NC(=O)CCCCCNc2ccc(S(=O)(=O)NC(=O)c3ccc(N4CCN(CC5=C(c6ccc(Cl)cc6)CC(C)(C)CC5)CC4)cc3Oc3cnc4[nH]ccc4c3)cc2S(=O)(=O)C(F)(F)F)C(C)(C)C)cc1 [I-80] |  |  | > 3 | > 30 | 
Cc1ncsc1-c1ccc([C@H](C)NC(=O)[C@@H]2C[C@@H](O)CN2C(=O)[C@@H](NC(=O)CCCCCN(CCO)CCCNc2ccc(S(=O)(=O)NC(=O)c3ccc(N4CCN(CC5=C(c6ccc(Cl)cc6)CC(C)(C)CC5)CC4)cc3Oc3cnc4[nH]ccc4c3)cc2S(=O)(=O)C(F)(F)F)C(C)(C)C)cc1 [I-100] |  |  | > 3 | > 30 | 
Cc1ncsc1-c1ccc([C@H](C)NC(=O)[C@@H]2C[C@@H](O)CN2C(=O)[C@@H](NC(=O)CCCCCC(=O)NCCCNc2ccc(S(=O)(=O)NC(=O)c3ccc(N4CCC([C@H](O)c5ccccc5-c5ccc(Cl)cc5)CC4)cc3Oc3cnc4[nH]ccc4c3)cc2S(=O)(=O)C(F)(F)F)C(C)(C)C)cc1 [I-56] |  |  | > 3 | > 30 | 
